{
  "source": "patent US20140051664A1",
  "about": "“COMBINATION THERAPY OF HSP90 INHIBITORY COMPOUNDS WITH RADIOTHERAPY” (SYNTA PHARMACEUTICALS CORP., priority 2011, published 2014)",
  "key": {"[1]": {"test": "Body weight and systemic toxicity in HeLaHL tumor-bearing Nude mice of the xenograft study", "assay_type": "in vivo", "conditions": "for animals removed from the study due to >20% body weight loss: 8 mice/group; for average bodyweight change relative to the start of the study: over the course of the study", "procedure": "Eight week old, female homozygous Crl:CD1-Foxn1^nu/nu (Nude) mice were obtained from Charles River Laboratories (Wilmington, Mass., USA). Animals were housed 4-5/cage in micro-isolators, with a 12 hr/12 hr light/dark cycle, acclimated for at least 1 week prior to use and fed normal laboratory chow ad libitum. Studies were conducted on animals at 10 weeks of age at implantation. To implant HeLaHL tumor cells into Nude mice, cell cultures were trypsinized as above and centrifuged to pellet the cells. The supernatant was aspirated and the cell pellet was resuspended at a concentration of 1×10^8 cells/mL in non-supplemented media. Cell concentration was determined using a hemocytometer. Using a 27 gauge needle and 1 cc syringe, 0.1 mL of the cell suspension was injected subcutaneously into the flanks of Nude mice. Tumor volumes (V) were calculated by caliper measurement of the width (W), length (L) and thickness (T) of tumors using the following formula: V=0.5236×(L×W×T).\nTo formulate Compound 1 in 10/18 DRD, stock solutions of Compound 1 were prepared by dissolving the appropriate amounts of the compound in dimethyl sulfoxide (DMSO) by sonication in an ultrasonic water bath. Stock solutions were prepared weekly, stored at −20° C. and diluted fresh each day for dosing. A solution of 20% Cremophor RH40 (polyoxyl 40 hydrogenated castor oil; BASF Corp., Aktiengesellschaft, Ludwigshafen, Germany) in 5% dextrose in water (D5W; Abbott Laboratories, North Chicago, Ill., USA) was also prepared by first heating 100% Cremophor RH40 at 50-60° C. until liquefied and clear, diluting 1:5 with 100% D5W, reheating again until clear and then mixing well. This solution was stored at room temperature for up to 3 months prior to use. To prepare 10/18 DRD formulations for daily dosing, DMSO stock solutions were diluted 1:10 with 20% Cremophor RH40. The final 10/18 DRD formulation for dosing contained 10% DMSO, 18% Cremophor RH40, 3.6% dextrose, 68.4% water and the appropriate amount of test article. Animals were intravenously (i.v.) injected with this formulation at 10 mL per kg body weight on one day each week (on the same day with one of the 3 weekly radiation doses) for a total of 4 doses.\nAnimals were irradiated using a calibrated ^137Cs gamma-ray (0.662 MeV) Model 30 Mark I irradiator (J. L. Shepherd & Associates, San Fernando, Calif., USA). Tumor-bearing animals were anesthetized for approximately 4 minutes with inhaled isoflurane (IsoFlo, Abbott Laboratories, North Chicago, Ill., USA) delivered on a stream of oxygen at 0.8 L/min and 3% volume/volume on a mobile anesthesia machine (VetEquip, Pleasanton, Calif., USA). […] Anesthetized animals were positioned in the irradiator approximately 2.5 cm in front of the ^137Cs source using a restraint device capable of holding 5 animals (J. L Shepherd & Associates). Ionizing radiation was focused on the subcutaneously implanted HeLaHL tumors through a 1 cm wide collimator (J. L. […]\nThe ability of Compound 1 to enhance the in vivo anti-tumor activity of ionizing radiation was investigated. Tumor-bearing animals (8 mice/group) were i.v. injected 1 time per week for a total of 4 doses (open arrowheads) with 10 mL/kg of 10/18 DRD vehicle with or without 150 mg/kg Compound 1. Animals were also irradiated 3 times per week for a total of 12 doses (closed arrowheads) with 2 Gy radiation. In the combination treatment group, animals were dosed with Compound 15 hr before being irradiated on days on which both treatments were delivered together. Each group that was not dosed with Compound 1 was instead dosed with 10/18 DRD vehicle as a mock treatment. Each group that was not irradiated was instead anesthetized and restrained as a mock irradiation. Average tumor volumes for each group were determined every 3-5 days (error bars represent +/−SEM). […]"}, "[2]": {"tested_on": "HeLaHL human cervical carcinoma tumor cells", "test": "Nude mouse xenograft study: in vivo growth of HeLaHL tumors, Compound 1 with or without fractionated ionizing radiation", "conditions": "HeLaHL xenograft in Nude mice", "procedure": "The human cervical carcinoma cancer cell line, HeLaHL, carrying a human Hsp70 promoter-luciferase reporter construct, was obtained from the laboratory of Dr. Richard Morimoto (Northwestern University, Evanston, Ill., USA). The cells were cultured in Dulbecco's Modified Eagle growth media prepared with 10% fetal bovine serum (FBS), 1% 100×HEPES, 1% 100× Penicillin-Streptomycin, 1% 100×L-glutamine, 1% 100× sodium pyruvate and 1% 100×MEM non-essential amino acids. FBS was obtained from American Type Culture Collection (Manassas, Va., USA) and all other reagents were obtained from Invitrogen Corp. (Carlsbad, Calif., USA). Cells that had been cryopreserved in liquid nitrogen were rapidly thawed at 37° C. and transferred to a tissue culture flask containing growth media and then incubated at 37° C. in a 5% CO2 incubator. To expand the cell line, cultures were passaged every 3 to 4 days by washing with 10 mL of room temperature phosphate buffered saline (PBS) and then disassociating cells by adding 5 mL 1× trypsin-EDTA until the cells detached from the surface of the flask. […]\nEight week old, female homozygous Crl:CD1-Foxn1^nu/nu (Nude) mice were obtained from Charles River Laboratories (Wilmington, Mass., USA). […] Cell concentration was determined using a hemocytometer. […] Tumor volumes (V) were calculated by caliper measurement of the width (W), length (L) and thickness (T) of tumors using the following formula: V=0.5236×(L×W×T).\nHeLaHL tumors were then permitted to develop in vivo until the majority reached 90-240 mm^3 in tumor volume, which required approximately 2½ weeks following implantation. […] Animals were randomized into treatment groups so that the average tumor volumes of each group were similar at the start of dosing. % T/C values, as a measure of efficacy, were determined as follows: • (i) If ΔT>0: % T/C=(ΔT/ΔC)×100 • (ii) If ΔT<0: % T/C=(ΔT/T0)×100 • (iii) ΔT=Change in average tumor volume between start of dosing and the end of study. • (iv) ΔC=Change in average tumor volume between start of dosing and the end of study. • (v) T0=Average tumor volume at start of dosing. […]"}},
  "data": [
    {"smiles": "CC(C)c1cc(-c2nnc(O)n2-c2ccc3c(ccn3C)c2)c(O)cc1O", "note": "[Compound 1, 3-(2,4-dihydroxy-5-isopropyl-phenyl)-4-(1-methyl-indol-5-yl)-5-hydroxy-[1,2,4] triazole]", "values": [
      {"measurement": "death due to excessive body weight loss", "setting": "[1]; 2 Gy radiation combined with 150 mg/kg Compound 1, among the animals removed from the study", "value": "One of the animals removed later died on Day 45"},
      {"measurement": "animals removed from the study due to >20% body weight loss", "setting": "[1]; 2 Gy radiation combined with 150 mg/kg Compound 1, toxicity on Day 42", "value": "2/8"},
      {"measurement": "animals removed from the study due to >20% body weight loss", "setting": "[1]; 4 Gy radiation combined with 150 mg/kg Compound 1, toxicity on Day 34", "value": "1/8"},
      {"measurement": "average bodyweight change relative to the start of the study", "setting": "[1]; Compound 1 150 mg/kg plus 2 Gy radiation 3 times per week", "value": 0.4, "unit": "%"},
      {"measurement": "average bodyweight change relative to the start of the study", "setting": "[1]; Compound 1 150 mg/kg plus 3-4 Gy radiation 3 times per week", "value": 1.2, "unit": "%"},
      {"measurement": "average bodyweight change relative to the start of the study", "setting": "[1]; Compound 1 alone, 150 mg/kg i.v. 1 time per week", "value": 3.2, "unit": "%"},
      {"measurement": "% T/C value", "setting": "[2]; 150 mg/kg Compound 1 alone, i.v., 1 time per week, 4 doses, 10/18 DRD, mock irradiation", "value": 28, "unit": "%"},
      {"measurement": "% T/C value", "setting": "[2]; 150 mg/kg Compound 1 i.v. 1 time per week combined with 2 Gy radiation 3 times per week (12 doses), Compound 1 dosed 5 hr before irradiation", "value": "−36", "unit": "%"},
      {"measurement": "% T/C value", "setting": "[2]; 150 mg/kg Compound 1 i.v. 1 time per week combined with 3-4 Gy radiation 3 times per week (4 Gy reduced to 3 Gy on Day 40), Compound 1 dosed 5 hr before irradiation", "value": "−73", "unit": "%"}
    ]}
  ]
}
